Measurements reported in patent US8415342B2, “Besifloxacin ophthalmic composition for the treatment or control of infection” (Bausch & Lomb Incorporated, priority 2008, dated 2013).
Values after ≈ are worked out from the molar mass of the structure shown. Read-outs that look alike come from different tables or passages of the source.

Experiments:
Type in all cases: cell-based
Streptococcus pneumoniae = assay: MIC, CLSI broth microdilution, clinical isolates
Staphylococcus aureus = assay: MIC, CLSI broth microdilution, clinical isolates; settings: for MIC50 / MIC90: Staphylococcus aureus
S. aureus = assay: MIC of clinical trial isolates, Studies 373, 433, 434; settings: Staphylococcus aureus
[1] = test system: Lancefield group C, F, G streptococci; assay: MIC, CLSI broth microdilution, clinical isolates; settings: G streptococci (N = 50)
Klebsiella oxytoca = assay: MIC, CLSI broth microdilution, clinical isolates; settings: Klebsiella oxytoca (N = 50)
Haemophilus influenzae = assay: MIC, CLSI broth microdilution, clinical isolates; settings: for MIC50 / MIC90: Haemophilus influenzae
Staphylococcus hominis = assay: MIC, CLSI broth microdilution, clinical isolates; settings: Staphylococcus hominis (N = 50)
[2] = test system: Staphylococcus saprophyticus; assay: MIC, CLSI broth microdilution, clinical isolates; settings: Staphylococcus saprophyticus (N = 101)
Viridans streptococci = assay: MIC, CLSI broth microdilution, clinical isolates; settings: Viridans streptococci (N = 156)
Moraxella catarrhalis = assay: MIC, CLSI broth microdilution, clinical isolates; settings: Moraxella catarrhalis (N = 101)
[3] = test system: Staphylococcus lugdunensis; assay: MIC, CLSI broth microdilution, clinical isolates; settings: Staphylococcus lugdunensis (N = 15)
Staphylococcus warneri = assay: MIC, CLSI broth microdilution, clinical isolates; settings: Staphylococcus warneri (N = 50)
Citrobacter koseri = assay: MIC, CLSI broth microdilution, clinical isolates; settings: Citrobacter koseri (N = 100)
Legionella pneumophila = assay: microbe, parasite or virus in culture
Streptococcus agalactiae = assay: MIC, CLSI broth microdilution, clinical isolates; settings: Streptococcus agalactiae (N = 100)
[4] = test system: Staphylococcus epidermidis; assay: MIC, CLSI broth microdilution, clinical isolates; settings: for MIC50: Staphylococcus epidermidis
[5] = test system: Staphylococcus haemolyticus; assay: MIC, CLSI broth microdilution, clinical isolates; settings: Staphylococcus haemolyticus (N = 101)
H. influenzae = assay: MIC and MBC:MIC ratio, recent ocular isolates; settings: H. influenzae (N = 40)
Source text: The success of in vivo antimicrobial action depends to a large extent on the host's defense mechanisms, which ultimately sequester and kill the microorganisms that have been reduced by the bacteriostatic/bactericidal action of the antibacterial agent. Thus, it is also of interest to profile the bactericidal activity of antimicrobial agents. The assessment of in vitro bactericidal activity can be accomplished in multiple ways, for example, the time-kill method or the determination of the minimum bactericidal concentration (MBC). […] Bactericidal agents are characterized by low MBC:MIC ratios.

Streptococcus pyogenes = assay: MIC, CLSI broth microdilution, clinical isolates; settings: Streptococcus pyogenes (N = 101)
S. epidermidis = assay: MIC of clinical trial isolates, Studies 373, 433, 434; settings: Staphylococcus epidermidis
Morganella morganii = assay: MIC, CLSI broth microdilution, clinical isolates; settings: Morganella morganii (N = 51)
[6] = Streptococcus pneumoniae (PSSP, N = 31)
[7] = Staphylococcus aureus (CNS, N = 16)
[8] = Staphylococcus aureus (CS, N = 14)
[9] = Staphylococcus aureus (all phenotypes, N = 30)
[10] = MRSA, Staphylococcus aureus (MRSA, N = 11)
[11] = MSSA, Staphylococcus aureus (MSSA, N = 19)
[12] = Haemophilus influenzae (all phenotypes, N = 40)
[13] = Haemophilus influenzae (bla negative, N = 24)
[14] = Haemophilus influenzae (bla positive, N = 16)
[15] = Staphylococcus epidermidis (CNS, N = 6)
[16] = Staphylococcus epidermidis (CS, N = 9)
[17] = Staphylococcus epidermidis (MSSE, N = 6)
[18] = Staphylococcus epidermidis (all phenotypes, N = 15)
[19] = Haemophilus influenzae, recent ocular isolates

With `N[C@@H]1CCCCN(c2c(F)cc3c(=O)c(C(=O)O)cn(C4CC4)c3c2Cl)C1` [Besifloxacin, (R)-(+)-(3-amino-2,3,4,5,6,7-hexahydro-1H-azepin-1-yl)-8-chloro-1-cyclopropyl-6-fluoro-1,4,-dihydro-4-oxo-3-quinolinecarboxylic acid] the “MIC Range” value (Streptococcus pneumoniae; Streptococcus pneumoniae (PISP, N = 2)) was 0.06 to 0.12 µg/mL, the “MIC Range” value (Streptococcus pneumoniae; Streptococcus pneumoniae (PRSP, N = 2)) was 0.03 to 0.06 µg/mL and the MIC50 (Streptococcus pneumoniae; [6]) was 0.06 µg/mL (≈ 0.152 µM). For the same compound, the MIC90 (Streptococcus pneumoniae; [6]) was 0.06 µg/mL (≈ 0.152 µM), the “MIC Range” value (Streptococcus pneumoniae; [6]) was 0.015 to 0.5 µg/mL and the “MIC Range” value (Streptococcus pneumoniae; Streptococcus pneumoniae (all phenotypes, N = 35)) was 0.015 to 0.5 µg/mL. For the same compound, the MIC50 (Streptococcus pneumoniae; Streptococcus pneumoniae (all phenotypes, N = 35), read-out: MIC50) was 0.06 µg/mL (≈ 0.152 µM), the MIC90 (Streptococcus pneumoniae; Streptococcus pneumoniae (all phenotypes, N = 35), read-out: MIC90) was 0.06 µg/mL (≈ 0.152 µM) and the “MIC Range” value (Staphylococcus aureus; [7]) was 0.03 to 4 µg/mL. For the same compound, the “MIC Range” value (Staphylococcus aureus; [8]) was 0.015 to 0.25 µg/mL, the “MIC Range” value (Staphylococcus aureus; Staphylococcus aureus (MRSA, N = 11)) was 0.015 to 4 µg/mL and the “MIC Range” value (Staphylococcus aureus; Staphylococcus aureus (MSSA, N = 19)) was 0.015 to 4 µg/mL. The “MIC Range” value (Staphylococcus aureus; [9]) was 0.015 to 4 µg/mL, the MIC50 (Staphylococcus aureus; [10]) was 0.5 µg/mL (≈ 1.27 µM) and the MIC90 (Staphylococcus aureus; [10]) was 4 µg/mL (≈ 10.2 µM). For the same compound, the MIC50 (Staphylococcus aureus; [11]) was 0.015 µg/mL (≈ 0.0381 µM), the MIC90 (Staphylococcus aureus; [11]) was 0.25 µg/mL (≈ 0.635 µM) and the MIC50 (Staphylococcus aureus; [7]) was 0.25 µg/mL (≈ 0.635 µM). For the same compound, the MIC90 (Staphylococcus aureus; [7]) was 4 µg/mL (≈ 10.2 µM), the MIC50 (Staphylococcus aureus; [8]) was 0.015 µg/mL (≈ 0.0381 µM) and the MIC90 (Staphylococcus aureus; [8]) was 0.12 µg/mL (≈ 0.305 µM). It also gave an MIC50 (Staphylococcus aureus; [9]) of 0.12 µg/mL (≈ 0.305 µM), an MIC90 (Staphylococcus aureus; [9]) of 4 µg/mL (≈ 10.2 µM) and an MIC90 (S. aureus; MRSA, S. aureus MRSA-CR, N 17, read-out: MIC90) of 4 µg/mL. It also gave an MIC90 (S. aureus; MRSA, S. aureus MRSA-CS, N 9, read-out: MIC90 (due to limited isolates, highest MIC value is given)) of 0.06 µg/mL, an MIC90 (S. aureus; MRSA, Staphylococcus aureus (MRSA-CR), isolates of studies 373, 433, 434, read-out: MIC90) of 4 µg/mL and an MIC90 (S. aureus; MSSA, S. aureus MSSA-CR, N 17, read-out: MIC90) of 2 µg/mL. The MIC90 (S. aureus; MSSA, S. aureus MSSA-CS, N 144, read-out: MIC90) was 0.06 µg/mL, the MIC90 (S. aureus; MSSA, Staphylococcus aureus (MSSA-CR), isolates of studies 373, 433, 434, read-out: MIC90) was 2 µg/mL and the MIC90 (S. aureus; Staphylococcus aureus (all phenotypes), isolates of studies 373, 433, 434, read-out: MIC90) was 0.5 µg/mL. The “MIC Range” value [1] was 0.015 to 0.25 µg/mL, the MIC50 ([1]; read-out: MIC50) was 0.03 µg/mL (≈ 0.0762 µM) and the MIC90 ([1]; read-out: MIC90) was 0.06 µg/mL (≈ 0.152 µM). The MIC50 (Klebsiella oxytoca) was 0.12 µg/mL (≈ 0.305 µM), the MIC90 (Klebsiella oxytoca) was 1 µg/mL (≈ 2.54 µM) and the “MIC Range” value (Klebsiella oxytoca) was 0.06 to 8 µg/mL. The “MIC Range” value (Haemophilus influenzae; [12]) was “≦0.004-0.03 μg/mL”, the “MIC Range” value (Haemophilus influenzae; [13]) was “≦0.004-0.03 μg/mL” and the “MIC Range” value (Haemophilus influenzae; [14]) was 0.008 to 0.03 µg/mL. It also gave an MIC50 (Haemophilus influenzae; [12]) of 0.015 µg/mL (≈ 0.0381 µM), an MIC90 (Haemophilus influenzae; [12]) of 0.015 µg/mL (≈ 0.0381 µM) and an MIC50 (Haemophilus influenzae; [13]) of 0.015 µg/mL (≈ 0.0381 µM). For the same compound, the MIC90 (Haemophilus influenzae; [13]) was 0.015 µg/mL (≈ 0.0381 µM), the MIC50 (Haemophilus influenzae; [14]) was 0.015 µg/mL (≈ 0.0381 µM) and the MIC90 (Haemophilus influenzae; [14]) was 0.03 µg/mL (≈ 0.0762 µM). The MIC50 (Staphylococcus hominis) was 0.25 µg/mL (≈ 0.635 µM), the MIC90 (Staphylococcus hominis) was 1 µg/mL (≈ 2.54 µM) and the “MIC Range” value (Staphylococcus hominis) was 0.015 to 2 µg/mL. The MIC50 [2] was 0.06 µg/mL (≈ 0.152 µM), the MIC90 [2] was 0.12 µg/mL (≈ 0.305 µM) and the “MIC Range” value [2] was 0.015 to 0.25 µg/mL. The “MIC Range” value (Viridans streptococci) was 0.015 to 2 µg/mL, the MIC50 (Viridans streptococci; read-out: MIC50) was 0.06 µg/mL (≈ 0.152 µM) and the MIC90 (Viridans streptococci; read-out: MIC90) was 0.12 µg/mL (≈ 0.305 µM). For the same compound, the MIC50 (Moraxella catarrhalis) was 0.03 µg/mL (≈ 0.0762 µM), the MIC90 (Moraxella catarrhalis) was 0.03 µg/mL (≈ 0.0762 µM) and the “MIC Range” value (Moraxella catarrhalis) was 0.015 to 0.12 µg/mL. The MIC50 [3] was 0.06 µg/mL (≈ 0.152 µM), the MIC90 [3] was 0.5 µg/mL (≈ 1.27 µM) and the “MIC Range” value [3] was 0.015 to 2 µg/mL. For the same compound, the MIC50 (Staphylococcus warneri) was 0.06 µg/mL (≈ 0.152 µM), the MIC90 (Staphylococcus warneri) was 1 µg/mL (≈ 2.54 µM) and the “MIC Range” value (Staphylococcus warneri) was 0.015 to 2 µg/mL. It also gave an MIC50 (Citrobacter koseri) of 0.06 µg/mL (≈ 0.152 µM), an MIC90 (Citrobacter koseri) of 0.25 µg/mL (≈ 0.635 µM) and an MIC50 (Legionella pneumophila; Legionella pneumophila) of 0.03 µg/mL (≈ 0.0762 µM). The MIC90 (Legionella pneumophila; Legionella pneumophila) was 0.03 µg/mL (≈ 0.0762 µM), the “MIC Range” value (Legionella pneumophila; Legionella pneumophila (N = 50)) was 0.015 to 0.06 µg/mL and the “MIC Range” value (Streptococcus agalactiae) was 0.03 to 0.12 µg/mL. For the same compound, the MIC50 (Streptococcus agalactiae; read-out: MIC50) was 0.06 µg/mL (≈ 0.152 µM), the MIC90 (Streptococcus agalactiae; read-out: MIC90) was 0.06 µg/mL (≈ 0.152 µM) and the “MIC Range” value [4, 15] was 0.25 to 4 µg/mL. For the same compound, the “MIC Range” value [4, 16] was 0.015 to 0.03 µg/mL, the “MIC Range” value ([4]; Staphylococcus epidermidis (MRSE, N = 9)) was 0.015 to 4 µg/mL and the “MIC Range” value [4, 17] was 0.015 to 0.25 µg/mL. The MIC90 [4, 18] was 4 µg/mL (≈ 10.2 µM), the “MIC Range” value [4, 18] was 0.015 to 4 µg/mL and the MIC50 ([4]; MRSE, Staphylococcus epidermidis (MRSE, N = 9)) was 0.25 µg/mL (≈ 0.635 µM). For the same compound, the MIC50 [4, 15] was 0.25 µg/mL (≈ 0.635 µM), the MIC50 [4, 16] was 0.03 µg/mL (≈ 0.0762 µM) and the MIC50 [4, 17] was 0.03 µg/mL (≈ 0.0762 µM). For the same compound, the MIC50 [4, 18] was 0.03 µg/mL (≈ 0.0762 µM), the MIC50 [5] was 0.5 µg/mL (≈ 1.27 µM) and the MIC90 [5] was 1 µg/mL (≈ 2.54 µM). The “MIC Range” value [5] was 0.015 to 4 µg/mL, the “% of isolates with MBC:MIC ratio 1” value (H. influenzae) was 42.5% and the “% of isolates with MBC:MIC ratio 2” value (H. influenzae) was 50.0%. The “% of isolates with MBC:MIC ratio 4” value (H. influenzae) was 7.5%, the “% of isolates with MBC:MIC ratio 8” value (H. influenzae) was 0.0% and the “% of isolates with MBC:MIC ratio ≧16” value (H. influenzae) was 0.0%. For the same compound, the “MIC Range” value (H. influenzae; recent ocular isolates) was “≦0.004-0.03 μg/mL”, the MIC50 (H. influenzae; [19]) was 0.015 µg/mL and the MIC90 (H. influenzae; [19]) was 0.015 µg/mL. The “MIC Range” value (Streptococcus pyogenes) was 0.03 to 0.06 µg/mL, the MIC50 (Streptococcus pyogenes; read-out: MIC50) was 0.03 µg/mL (≈ 0.0762 µM) and the MIC90 (Streptococcus pyogenes; read-out: MIC90) was 0.06 µg/mL (≈ 0.152 µM). For the same compound, the MIC90 (S. epidermidis; MRSE, S. epidermidis MRSE-CR, N 24, read-out: MIC90) was 4 µg/mL, the MIC90 (S. epidermidis; MRSE, S. epidermidis MRSE-CS, N 27, read-out: MIC90) was 0.06 µg/mL and the MIC90 (S. epidermidis; S. epidermidis MSSE-CR, N 10, read-out: MIC90) was 1 µg/mL. For the same compound, the MIC90 (S. epidermidis; S. epidermidis MSSE-CS, N 50, read-out: MIC90) was 0.06 µg/mL, the MIC90 (S. epidermidis; isolates of studies 373, 433, 434, read-out: MIC90) was 0.5 µg/mL and the MIC50 (Morganella morganii) was 0.12 µg/mL (≈ 0.305 µM). The MIC90 (Morganella morganii) was 4 µg/mL (≈ 10.2 µM).
